{"source": "patent US20060002866A1", "about": "“Method for protecting the skin from aging” (priority 2002, published 2006)", "test_system": "lumican mRNA in MRC5 fibroblasts", "experiment": "Stimulation of the lumican mRNA content in MRC5 fibroblasts (Northern Blot)", "assay_type": "cell-based, human", "details": "for Mean value [mRNA lumican/36B4 mRNA]: MRC5 fibroblasts, lumican mRNA against housekeeping gene 36B4 mRNA", "protocol": "Northern Blot technique for determining the RNA messengers in cells of low molecular weight proteoglycans, such as lumican and syndecan.\nThe stimulation of the lumican mRNA content in MRC5 fibroblasts incubated with increasing concentrations of the growth factor IGF-1 (Insulin-like Growth Factor 1, Sigma-Aldrich) was investigated. The content of mRNA of the proteoglycan lumican in cultures of human fibroblasts—MRC5 fibroblasts—was determined by the Northern Blot method.", "data": [{"substance": "IGF-1: growth factor IGF-1 (Insulin-like Growth Factor 1, Sigma-Aldrich)", "values": [{"measurement": "Mean value [mRNA lumican/36B4 mRNA]", "setting": "IGF-1 0.1 ng/ml", "result": 1.38}, {"measurement": "Mean value [mRNA lumican/36B4 mRNA]", "setting": "IGF-1 1 ng/ml", "result": 2}, {"measurement": "Mean value [mRNA lumican/36B4 mRNA]", "setting": "IGF-1 10 ng/ml", "result": 3.2}, {"measurement": "Effect on mRNA content for lumican", "setting": "cultures of MRC5 fibroblasts", "result": "increases the mRNA content for lumican"}]}]}
